In assay [1] the test system is MCF-7 cells. As to the kind of experiment: Breast cancer cell viability assay (CellTiter-Glo, 5 days). The assay is classed as cell-based. The note with it: 5 days' compound exposure; for IC50: Homo sapiens, MCF7, 120 h. The protocol: MCF-7 cells were adjusted to a concentration of 20,000 cells per mL in RPMI containing 10% FBS and 20 mM HEPES. 16 microliters of the cell suspension (320 cells) was added to each well of a 384 well plate, and the cells were incubated overnight to allow the cells to adhere. The following day an eleven point, serial semilog dilution of each compound was added to the cells in 16 μL at a final concentration ranging from 0.3-0.000003 μM. After 5 days' compound exposure, 16 μL of CellTiter-GLo (Promega, Madison Wis.) was added to the cells the relative luminescence units (RLUs) of each well was determined CellTiter-Glo added to 32 μL of medium without cells was used to obtain a background value. The Percent viability of each sample was determined as follows: (RLU sample-RLU background/RLU untreated cells-RLU background)×100=% viability.
(In general: In ATP-based viability assays light output follows the ATP content of the culture.)

Assay [2] deals with T1, ER-α in MCF-7 cells (Homo sapiens, UniProt P03372).
T1 sequence (P03372 1-595): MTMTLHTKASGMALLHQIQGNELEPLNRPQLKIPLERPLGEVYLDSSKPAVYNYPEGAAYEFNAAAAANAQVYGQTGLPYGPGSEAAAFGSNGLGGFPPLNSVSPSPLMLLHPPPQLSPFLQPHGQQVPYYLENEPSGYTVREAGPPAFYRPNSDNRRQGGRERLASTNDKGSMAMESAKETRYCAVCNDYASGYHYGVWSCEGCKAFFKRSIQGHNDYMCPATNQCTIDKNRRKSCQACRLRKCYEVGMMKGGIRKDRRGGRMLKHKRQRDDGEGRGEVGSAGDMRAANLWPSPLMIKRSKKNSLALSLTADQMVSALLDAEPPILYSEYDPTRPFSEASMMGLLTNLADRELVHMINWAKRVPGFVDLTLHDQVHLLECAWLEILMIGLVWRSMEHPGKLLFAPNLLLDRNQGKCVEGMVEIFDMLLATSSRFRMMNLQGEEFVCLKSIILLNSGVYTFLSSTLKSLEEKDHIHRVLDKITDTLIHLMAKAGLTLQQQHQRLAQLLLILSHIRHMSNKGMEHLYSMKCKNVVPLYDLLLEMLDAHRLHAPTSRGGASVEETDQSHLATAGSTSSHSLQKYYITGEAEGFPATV
The assay is described as follows: Breast cancer cell ER-α in cell western assay (SP1). Details: endogenous in cells; host or cells: MCF-7. It is filed as cell-based. The note with it: 4 or 24 hr post compound addition; for Emax: MCF7, SP1 antibody, read-out: ER-α In Cell Western Assay (SP1) Max Response; for DC50: SP1 antibody, read-out: ER-α In Cell Western Assay (SP1) IC50. The protocol:
MCF-7 cells were adjusted to a concentration of 200,000 cells per mL in RPMI containing 10% charcoal-stripped FBS and 20 mM HEPES. 16 microliters of the cell suspension (3200 cells) was added to each well of a poly-D-lysine 384 well plate, and the cells were incubated overnight to allow the cells to adhere. The following day an eleven point, serial semilog dilution of each compound was added to the cells in 16 μL at a final concentration ranging from 0.3-0.000003 μM. At 4 or 24 hr post compound addition, the cells were fixed (10% formalin in PBS) for 20 minutes. Cells were permeablized in PBS 0.1% Triton and blocked with LICOR blocking buffer (50 μl/well, 90°). The wells were then incubated overnight at 4° C. with SP1 rabbit monoclonal Ab (Thermo Scientific) diluted 1:1000 in LICOR blocking buffer/0.1% Tween-20. Wells which were treated with blocking buffer with Tween but no antibody were used as a background control. Wells were washed with 0.1% Tween-20/PBS and then incubated in goat anti-rabbit IRDye™ 800CW (LICOR Inc.; 1:1000) and DRAQ5 DNA dye (1:2000 for 2 mM stock) diluted in LICOR blocking buffer containing 0.1% Tween-20 and 0.01% SDS for 60 minutes. Cells were washed (50 μl/well, 5′ each) in 0.1% Tween-20/PBS. Plates were scanned on a LICOR Odyssey infrared imaging system. Integrated intensities in the 800 nm channel and 700 nm channel were measured to determine levels of ER and DNA respectively. Percent ER levels were determined as follows: (Integrated intensity 800 nm sample/integrated intensity 700 nm sample)/(Integrated intensity 800 nm untreated cells/integrated intensity 700 nm untreated cells)×100=% ER levels.

Structures are written as SMILES. Some results are limits rather than exact numbers.

By IC50 is commonly meant the concentration that inhibits the measured activity by half. A low value points to greater potency in that assay.

`CC/C(=C(/c1ccc(/C=C/C(=O)O)cc1)c1ccc2[nH]nnc2c1)c1ccccc1` [Compound 3, (E)-3-(4-((E)-1-(1H-Benzo[d][1,2,3]triazol-5-yl)-2-phenylbut-1-en-1-yl)phenyl)acrylic acid]: in assay [1], the “MCF7 Viability Assay Max Response” value is listed as “++ (++ = a single % value ≧ 40%)” and the IC50 was no more than 100 nM. Moreover, the Emax in assay [2] is no less than 40%.

With `CC/C(=C(/c1ccc(/C=C/C(=O)O)cc1)c1ccc2cn[nH]c2c1)c1ccccc1` [Compound 5, (E)-3-(4-((E)-1-(1H-Indazol-6-yl)-2-phenylbut-1-en-1-yl)phenyl)acrylic acid], in assay [1], the “MCF7 Viability Assay Max Response” value was “++ (++ = a single % value ≧ 40%)” and the half-maximal inhibitory concentration (IC50) was greater than 100 nM. Moreover, the Emax in assay [2] was no less than 40%.

`CC/C(=C(/c1ccc(/C=C/C(=O)O)cc1)c1cccc2[nH]ncc12)c1ccccc1` [Compound 18, (E)-3-(4-((E)-1-(1H-Indazol-4-yl)-2-phenylbut-1-en-1-yl)phenyl)acrylic acid]: in assay [1], the “MCF7 Viability Assay Max Response” value is “++ (++ = a single % value ≧ 40%)” and the IC50 is no more than 100 nM. Also, the Emax in assay [2] was no less than 40%.

On to `CC/C(=C(/c1ccc(/C=C/C(=O)O)cc1)c1cccc2[nH]ncc12)c1ccccc1C` [Compound 21, (E)-3-(4-((E)-1-(1H-Indazol-4-yl)-2-(o-tolyl)but-1-en-1-yl)phenyl)acrylic acid], for which, in assay [1], the “MCF7 Viability Assay Max Response” value was “++ (++ = a single % value ≧ 40%)” and the IC50 is no more than 100 nM. Moreover, in assay [2], the Emax is no less than 40% and the DC50 is no more than 100 nM.

Consider `CC/C(=C(/c1ccc(/C=C/C(=O)O)cc1)c1cccc2[nH]ncc12)c1ccccc1Cl` [Compound 22, (E)-3-(4-((E)-2-(2-Chlorophenyl)-1-(1H-indazol-4-yl)but-1-en-1-yl)phenyl)acrylic acid], for which, in assay [1], the “MCF7 Viability Assay Max Response” value is on record as “++ (++ = a single % value ≧ 40%)” and the IC50 was no more than 100 nM. Further, in assay [2], the Emax was no less than 40% and the DC50 was no more than 100 nM.

Regarding `CC/C(=C(/c1ccc(/C=C/C(=O)O)cc1)c1ccc2[nH]ncc2c1)c1cccs1` [Compound 23, (E)-3-(4-((E)-1-(1H-Indazol-5-yl)-2-(thiophen-2-yl)but-1-en-1-yl)phenyl)acrylic acid], in assay [1], the “MCF7 Viability Assay Max Response” value is given as “++ (++ = a single % value ≧ 40%)” and the IC50 was no more than 100 nM. In assay [2], the Emax was no less than 40% and the DC50 is no more than 100 nM.

Consider `CC/C(=C(/c1ccc(/C=C/C(=O)O)cc1)c1ccc2[nH]ncc2c1)c1ccsc1` [Compound 24, (E)-3-(4-((E)-1-(1H-Indazol-5-yl)-2-(thiophen-3-yl)but-1-en-1-yl)phenyl)acrylic acid], for which, in assay [1], the “MCF7 Viability Assay Max Response” value is “++ (++ = a single % value ≧ 40%)” and the IC50 is no more than 100 nM. In addition, in assay [2], the Emax is no less than 40% and the DC50 was no more than 100 nM.

On to `CC/C(=C(/c1ccc(/C=C/C(=O)O)cc1)c1ccc2[nH]ncc2c1)c1ccccn1` [Compound 25, (E)-3-(4-((E)-1-(1H-Indazol-5-yl)-2-(pyridin-2-yl)but-1-en-1-yl)phenyl)acrylic acid], for which, in assay [1], the “MCF7 Viability Assay Max Response” value is reported as “++ (++ = a single % value ≧ 40%)” and the IC50 was greater than 100 nM. Besides, in assay [2], the Emax is no less than 40% and the DC50 was greater than 100 nM.

On to `CC/C(=C(/c1ccc(/C=C/C(=O)O)cc1)c1ccc2[nH]ncc2c1)c1ccccc1-c1ccccc1` [Compound 28, (E)-3-(4-((E)-2-([1,1′-Biphenyl]-2-yl)-1-(1H-indazol-5-yl)but-1-en-1-yl)phenyl)acrylic acid], for which, in assay [1], the “MCF7 Viability Assay Max Response” value was “++ (++ = a single % value ≧ 40%)” and the IC50 is greater than 100 nM. In assay [2], the Emax was no less than 40% and the DC50 was greater than 100 nM.

As for `CC/C(=C(/c1ccc(/C=C/C(=O)O)cc1)c1cccc2[nH]ncc12)c1ccc(F)cc1Cl` [Compound 30, (E)-3-(4-((E)-2-(2-Chloro-4-fluorophenyl)-1-(1H-indazol-4-yl)but-1-en-1-yl)phenyl)acrylic acid], in assay [1], the “MCF7 Viability Assay Max Response” value is “++ (++ = a single % value ≧ 40%)” and the IC50 is no more than 100 nM. In assay [2], the Emax was no less than 40% and the DC50 is no more than 100 nM.

For `CC/C(=C(/c1ccc(/C=C/C(=O)O)cc1)c1cccc2[nH]ncc12)c1ccccc1F` [Compound 31, (E)-3-(4-((E)-2-(2-Fluorophenyl)-1-(1H-indazol-4-yl)but-1-en-1-yl)phenyl)acrylic acid], in assay [1], the “MCF7 Viability Assay Max Response” value is recorded as “++ (++ = a single % value ≧ 40%)” and the IC50 is no more than 100 nM. In addition, in assay [2], the Emax is no less than 40% and the DC50 was no more than 100 nM.

For `CC/C(=C(/c1ccc(/C=C/C(=O)O)cc1)c1ccc2[nH]ncc2c1)c1cccc2ccccc12` [Compound 50, (E)-3-(4-((E)-1-(1H-Indazol-5-yl)-2-(naphthalen-1-yl)but-1-en-1-yl)phenyl)acrylic acid], in assay [1], the “MCF7 Viability Assay Max Response” value is recorded as “++ (++ = a single % value ≧ 40%)” and the IC50 was no more than 100 nM. Further, in assay [2], the Emax was no less than 40% and the DC50 is no more than 100 nM.

As for `CC/C(=C(/c1ccc(/C=C/C(=O)O)cc1)c1ccnc2[nH]ncc12)c1ccccc1` [Compound 56, (E)-3-(4-((E)-2-Phenyl-1-(1H-pyrazolo[3,4-b]pyridin-4-yl)but-1-en-1-yl)phenyl)acrylic acid], in assay [1], the “MCF7 Viability Assay Max Response” value is reported as “++ (++ = a single % value ≧ 40%)” and the IC50 is greater than 100 nM. In assay [2], the Emax was no less than 40% and the DC50 is no more than 100 nM.

On to `CC/C(=C(/c1ccc(/C=C/C(=O)O)cc1)c1ccc2[nH]ncc2c1)c1ccc(N(C)C)cc1` [Compound 62, (E)-3-(4-((E)-2-(4-(Dimethylamino)phenyl)-1-(1H-indazol-5-yl)but-1-en-1-yl)phenyl)acrylic acid], for which, in assay [1], the “MCF7 Viability Assay Max Response” value is “++ (++ = a single % value ≧ 40%)” and the IC50 is greater than 100 nM. Also, in assay [2], the Emax is no less than 40% and the DC50 was greater than 100 nM.

For the compound `CC/C(=C(/c1ccc(/C=C/C(=O)O)cc1)c1ccc2[nH]ccc2c1)c1ccccc1` [Compound 64, (E)-3-(4-((E)-1-(1H-Indol-5-yl)-2-phenylbut-1-en-1-yl)phenyl)acrylic acid], in assay [1], the “MCF7 Viability Assay Max Response” value was “++ (++ = a single % value ≧ 40%)” and the concentration for half-maximal inhibition (IC50) was no more than 100 nM. Further, the Emax in assay [2] is no less than 40%.

As to `CC/C(=C(/c1ccc(/C=C/C(=O)O)cc1)c1ccc2[nH]c(=O)oc2c1)c1ccccc1` [Compound 66, (E)-3-(4-((E)-1-(2-Oxo-2,3-dihydrobenzo[d]oxazol-6-yl)-2-phenylbut-1-en-1-yl)phenyl)acrylic acid], in assay [1], the “MCF7 Viability Assay Max Response” value is “++ (++ = a single % value ≧ 40%)” and the IC50 was no more than 100 nM. Moreover, the Emax in assay [2] is no less than 40%.

`CC/C(=C(/c1ccc(/C=C/C(=O)O)cc1)c1ccc2c(cnn2C(F)F)c1)c1ccc(F)cc1Cl` [Compound 401, (E)-3-(4-((E)-2-(2-Chloro-4-fluorophenyl)-1-(1-(difluoromethyl)-1H-indazol-5-yl)but-1-en-1-yl)phenyl)acrylic acid] came in with an IC50 in assay [1] greater than 100 nM.

For the origin of these results see US9399646B2 (Genentech, Inc., priority 2010, dated 2016).
